Measured values reported in US6642217B2, “Triterpenes having human antifungal and antiyeast activity” (Naturtek, LLC, priority 2000, dated 2003).

Columns and labels:
Microsporum audouinni [1] = test: Direct addition method, solid compound in Sabouraud dextrose agar; format: cell-based, Microsporum audouinii; parameters: key to Fungal growth: +++: Maximum Fungal Growth; ++: Moderate Fungal Growth; +: Minimum Fungal Growth; +/−: Very little Fungal Growth; −: No Fungal Growth; settings: for Fungal growth: 4 mg/mL of agar, 12th day after inoculation
Procedure: (§1) Direct addition method. Sabouraud dextrose agar was prepared according to the manufacturer's instructions and 5.0 ml was dispensed in each 100×25 mm tube. The tubes were autoclaved. To each tube containing 5.0 ml of liquid agar at 45° C., 20 mg of solid test compound was added, to give a final concentration of 4 mg/ml. The agar was solidified in slants. The fungal cultures were then innoculated. The slants were incubated at 25-28 ° C. for 10-12 days, and the growth of the fungus was recorded every second day. The results in Table 2 indicate growth at the 12th day of inoculation.

Pityrosporum ovale [2] = test: Direct addition into the Pityrosporum agar; format: cell-based; parameters: key to Pityrosporum ovale growth: +++: Maximum Growth; ++: Moderate Growth; +: Minimum Growth; +/−: Very Little Growth; −: No Growth; settings: 4 mg/ml in the agar; 18 hours after inoculation
Procedure: as §1, with “The slants were incubated at 25-28 ° C. for 10-12 days, and the growth of the fungus was recorded every second day. The results in Table 2 indicate growth at the 12th day of inoculation.” left out

Microsporum audouinii = test: Summary of anti-fungal assays (direct addition, agar dilution, liquid culture); format: cell-based; settings: stated in words (Tables 1a/1b, text to Table 5)
Procedure: This example summarizes the results of various other assays of the anti-fungal activity of betulin derivatives. Table 5 summarizes results using different assay methods—direct addition, agar dilution, and direct addition to liquid culture, as disclosed in the previous three Examples. In some cases, only one type of assay was done with a compound. In other cases, the compound was tested by multiple assays.

Epidermophyton floccosum [3] = test: Direct addition method, solid compound in Sabouraud dextrose agar; format: cell-based; parameters: key: +++: Maximum Fungal Growth; ++: Moderate Fungal Growth; +: Minimum Fungal Growth; +/−: Very little Fungal Growth; −: No Fungal Growth; settings: 4 mg/mL of agar; 12th day after inoculation
Procedure: as §1

Microsporum canis [4] = test: as above; format: cell-based; parameters: key: +++: Maximum Fungal Growth; ++: Moderate Fungal Growth; +: Minimum Fungal Growth; +/−: Very little Fungal Growth; −: No Fungal Growth; settings: 4 mg/mL of agar; 12th day after inoculation
Procedure: as §1

Pityrosporum ovale [5] = test: as above; format: cell-based; parameters: key: +++: Maximum Fungal Growth; ++: Moderate Fungal Growth; +: Minimum Fungal Growth; +/−: Very little Fungal Growth; −: No Fungal Growth; settings: 4 mg/mL of agar; 12th day after inoculation
Procedure: as §1

Trichophyton rubrum [6] = test: as above; format: cell-based; parameters: key: +++: Maximum Fungal Growth; ++: Moderate Fungal Growth; +: Minimum Fungal Growth; +/−: Very little Fungal Growth; −: No Fungal Growth; settings: 4 mg/mL of agar; 12th day after inoculation
Procedure: as §1

Microsporum canis [7] = test: Agar dilution method, growth on Sabouraud dextrose agar slants; format: cell-based; parameters: key: +++: Maximum Fungal Growth; ++: Moderate Fungal Growth; +: Minimum Fungal Growth; +/−: Very little Fungal Growth; −: No Fungal Growth; settings: 12th day after inoculation
Procedure: (§2) Agar dilution method. Sabouraud Dextrose Agar (Difco Laboratories, Michigan) was prepared according to the manufacturer's instructions. Five ml was dispensed in a 100×25 mm tube and autoclaved. To each tube containing 5.0 ml of liquid agar at 45° C., 0.5, 0.25, 0.12, or 0.063 ml of a DMSO solution of the compound was added to give the final indicated concentrations in Table 2. The agar was then solidified in slants. Fungal cultures were inoculated. The slants were incubated at 25-28° C. for 10-12 days, and the growth of the fungus was recorded every second day.

Microsporum gypseum = test: as above; format: cell-based; parameters: key: +++: Maximum Fungal Growth; ++: Moderate Fungal Growth; +: Minimum Fungal Growth; +/−: Very little Fungal Growth; −: No Fungal Growth; settings: 12th day after inoculation
Procedure: as §2

Pityrosporum ovale [8] = test: as above; format: cell-based; parameters: key: +++: Maximum Fungal Growth; ++: Moderate Fungal Growth; +: Minimum Fungal Growth; +/−: Very little Fungal Growth; −: No Fungal Growth; settings: 12th day after inoculation
Procedure: as §2

Trichophyton rubrum [9] = test: as above; format: cell-based; parameters: key: +++: Maximum Fungal Growth; ++: Moderate Fungal Growth; +: Minimum Fungal Growth; +/−: Very little Fungal Growth; −: No Fungal Growth; settings: 12th day after inoculation
Procedure: as §2

Microsporum audouinni [10] = test: as above; format: cell-based, Microsporum audouinii; parameters: key: +++: Maximum Fungal Growth; ++: Moderate Fungal Growth; +: Minimum Fungal Growth; +/−: Very little Fungal Growth; −: No Fungal Growth; settings: 12th day after inoculation
Procedure: as §2

Trichophyton tonsuran = test: as above; format: cell-based, Trichophyton tonsurans; parameters: key: +++: Maximum Fungal Growth; ++: Moderate Fungal Growth; +: Minimum Fungal Growth; +/−: Very little Fungal Growth; −: No Fungal Growth; settings: 12th day after inoculation
Procedure: as §2

[11] = tested on: Trichophyton mentagrophyte; test: as above; format: cell-based, Trichophyton mentagrophytes; parameters: key to Fungal growth: +++: Maximum Fungal Growth; ++: Moderate Fungal Growth; +: Minimum Fungal Growth; +/−: Very little Fungal Growth; −: No Fungal Growth; settings: 12th day after inoculation
Procedure: as §2

Epidermophyton floccosum [12] = test: as above; format: cell-based; parameters: key to Fungal growth: +++: Maximum Fungal Growth; ++: Moderate Fungal Growth; +: Minimum Fungal Growth; +/−: Very little Fungal Growth; −: No Fungal Growth; settings: 12th day after inoculation
Procedure: as §2

Compound	Fungal growth (Microsporum audouinni [1])	Pityrosporum ovale growth (Pityrosporum ovale [2])	Fungal growth (Epidermophyton floccosum [3])	Fungal growth (Microsporum canis [4])	Fungal growth (Pityrosporum ovale [5])	Fungal growth (Trichophyton rubrum [6])	Fungal growth (Microsporum canis [7]; 125 μg/ml)	Fungal growth (Microsporum canis [7]; 250 μg/ml)	Fungal growth (Microsporum canis [7]; 500 μg/ml)	Fungal growth (Microsporum canis [7]; 1000 μg/ml)	Fungal growth (Microsporum gypseum; 125 μg/ml)	Fungal growth (Microsporum gypseum; 250 μg/ml)	Fungal growth (Microsporum gypseum; 500 μg/ml)	Fungal growth (Microsporum gypseum; 1000 μg/ml)	Fungal growth (Pityrosporum ovale [8]; 125 μg/ml)	Fungal growth (Pityrosporum ovale [8]; 250 μg/ml)	Fungal growth (Pityrosporum ovale [8]; 500 μg/ml)	Fungal growth (Pityrosporum ovale [8]; 1000 μg/ml)	Fungal growth (Trichophyton rubrum [9]; 125 μg/ml)	Fungal growth (Trichophyton rubrum [9]; 250 μg/ml)	further results
C=C(C)[C@@H]1CC[C@]2(COC(=O)/C=C\C(=O)O)CC[C@]3(C)[C@H](CC[C@@H]4[C@@]5(C)CC[C@H](OC(=O)/C=C\C(=O)O)C(C)(C)[C@@H]5CC[C@]43C)[C@@H]12 [Betulin-3,28-dimaleate]	−	+	−	+	−	+															best anti-fungal or anti-yeast activity by the direct addition method (Microsporum audouinni [1]; against Microsporum audouinii): against Microsporum audouinii; Active against Microsporum audouinii (Microsporum audouinii): Microsporum audouinii
C=C(C)C1CCC2(CO)CCC3(C)C(CCC4C5(C)CCC(OC(=O)C=CC(=O)O)C(C)(C)C5CCC43C)C12 (stereo not drawn) [Betulin-3-maleate]							+	+/−	+/−	−	+++	++	++	−	+++	+++	++	+/−	++	++	Fungal growth (Trichophyton rubrum [9]; 500 μg/ml): +; Fungal growth (Trichophyton rubrum [9]; 1000 μg/ml): −; Fungal growth (Microsporum audouinni [10]; 125 μg/ml): +/−; Fungal growth (Microsporum audouinni [10]; 250 μg/ml): +/−; Fungal growth (Microsporum audouinni [10]; 500 μg/ml): −; Fungal growth (Microsporum audouinni [10]; 1000 μg/ml): −; Fungal growth (Trichophyton tonsuran; 125 μg/ml): ++; Fungal growth (Trichophyton tonsuran; 250 μg/ml): ++; Fungal growth (Trichophyton tonsuran; 500 μg/ml): +; Fungal growth (Trichophyton tonsuran; 1000 μg/ml): −; Fungal growth ([11]; 125 μg/ml): ++; Fungal growth ([11]; 250 μg/ml): +; Fungal growth ([11]; 500 μg/ml): +/−; Fungal growth ([11]; 1000 μg/ml): −; Fungal growth (Epidermophyton floccosum [12]; 125 μg/ml): ++; Fungal growth (Epidermophyton floccosum [12]; 250 μg/ml): +; Fungal growth (Epidermophyton floccosum [12]; 500 μg/ml): −; Fungal growth (Epidermophyton floccosum [12]; 1000 μg/ml): −
COC1=CC(=O)C[C@@H](C)[C@]12Oc1c(Cl)c(OC)cc(OC)c1C2=O [Griseofulvin, reference compound]	−	+	−	−	−	−	+/−	+/−	−	−	+/−	+/−	−	−	+++	+++	++	−	+/−	+/−	Fungal growth (Trichophyton rubrum [9]; 500 μg/ml): −; Fungal growth (Trichophyton rubrum [9]; 1000 μg/ml): −; Fungal growth (Microsporum audouinni [10]; 125 μg/ml): −; Fungal growth (Microsporum audouinni [10]; 250 μg/ml): −; Fungal growth (Microsporum audouinni [10]; 500 μg/ml): −; Fungal growth (Microsporum audouinni [10]; 1000 μg/ml): −; Fungal growth (Trichophyton tonsuran; 125 μg/ml): +/−; Fungal growth (Trichophyton tonsuran; 250 μg/ml): +/−; Fungal growth (Trichophyton tonsuran; 500 μg/ml): −; Fungal growth (Trichophyton tonsuran; 1000 μg/ml): −; Fungal growth ([11]; 125 μg/ml): ++; Fungal growth ([11]; 250 μg/ml): +; Fungal growth ([11]; 500 μg/ml): −; Fungal growth ([11]; 1000 μg/ml): −; Fungal growth (Epidermophyton floccosum [12]; 125 μg/ml): ++; Fungal growth (Epidermophyton floccosum [12]; 250 μg/ml): +; Fungal growth (Epidermophyton floccosum [12]; 500 μg/ml): −; Fungal growth (Epidermophyton floccosum [12]; 1000 μg/ml): −
C=C(C)C1CCC2(C)CCC3(C)C(CCC4C5(C)CCC(OC(=O)CCC(=O)O)C(C)(C)C5CCC43C)C12 (stereo not drawn) [Lupeol-3-succinate]	+	+	−	+	−	+															
